Drawing on PubChem BioAssay AID2060611 (Molecular Pharmacology Branch, DTP, NCI, 2025), this text covers viability, T/C for 4 molecules.

Molecules are shown by their SMILES.

One may read the viability, T/C as the ratio of treated to control.
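Note: spheroids exposed to agents for seven days before readout; 100% = DMSO vehicle control viability.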

One test deals with 628569-122-R-J1-PDC complex spheroid viability. In words: Anticancer human tumor 628569-122-R-J1-PDC patient-derived head and neck squamous carcinoma cell line growth inhibition [CLK]. The conditions noted are these: second compound 0.316 µM; first compound 0.316 µM; stronger effect = lower value. In a few lines:
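Multi-cell-type spheroids combined patient-derived tumor cells with HUVEC endothelial cells and human mesenchymal stem cells. Paired agents were dosed in half-log steps down from about clinical Cmax, or from 10 microM where Cmax was unknown.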
Take `O=c1[nH]cc(F)c(=O)[nH]1` + CN1CCN(c2cc(C(=O)Nc3cc4cc(-c5cnn(C)c5)ccc4cn3)ccn2)CC1: the viability, T/C was 37.5%.

`Nc1ccccc1NC(=O)c1ccc(CNC(=O)OCc2cccnc2)cc1` + CN1CCN(c2cc(C(=O)Nc3cc4cc(-c5cnn(C)c5)ccc4cn3)ccn2)CC1: the viability, T/C is 37.5%.

Turning to `Nc1ccn(C2OC(CO)C(O)C2(F)F)c(=O)n1` (centres undefined) + CNC(=O)c1ccc(Nc2nc(OC3CCCC3)c3c(-c4ccc5nc(C)oc5c4)c[nH]c3n2)c(OC)c1, the viability, T/C was 50.5%.

For the molecule `O=C(c1cc(Cc2n[nH]c(=O)c3ccccc23)ccc1F)N1CCN(C(=O)C2CC2)CC1` + CN1CCN(c2cc(C(=O)Nc3cc4cc(-c5cnn(C)c5)ccc4cn3)ccn2)CC1, the viability, T/C is 33.9%.

The test is the same for the next values; noted with them: second compound 0.316 µM; first compound 1 µM; stronger effect = lower value.
For `O=c1[nH]cc(F)c(=O)[nH]1` + CN1CCN(c2cc(C(=O)Nc3cc4cc(-c5cnn(C)c5)ccc4cn3)ccn2)CC1, the viability, T/C is 44.7%.

In the case of `Nc1ccccc1NC(=O)c1ccc(CNC(=O)OCc2cccnc2)cc1` + CN1CCN(c2cc(C(=O)Nc3cc4cc(-c5cnn(C)c5)ccc4cn3)ccn2)CC1, the viability, T/C was 30.2%.

Regarding `Nc1ccn(C2OC(CO)C(O)C2(F)F)c(=O)n1` (centres undefined) + CNC(=O)c1ccc(Nc2nc(OC3CCCC3)c3c(-c4ccc5nc(C)oc5c4)c[nH]c3n2)c(OC)c1, the viability, T/C was 40.6%.

As to `O=C(c1cc(Cc2n[nH]c(=O)c3ccccc23)ccc1F)N1CCN(C(=O)C2CC2)CC1` + CN1CCN(c2cc(C(=O)Nc3cc4cc(-c5cnn(C)c5)ccc4cn3)ccn2)CC1, the viability, T/C is 27.7%.

The same test, now with this note: second compound 0.316 µM; first compound 3.16 µM; stronger effect = lower value.
Turning to `O=c1[nH]cc(F)c(=O)[nH]1` + CN1CCN(c2cc(C(=O)Nc3cc4cc(-c5cnn(C)c5)ccc4cn3)ccn2)CC1, the viability, T/C is 38.3%.

With `Nc1ccccc1NC(=O)c1ccc(CNC(=O)OCc2cccnc2)cc1` + CN1CCN(c2cc(C(=O)Nc3cc4cc(-c5cnn(C)c5)ccc4cn3)ccn2)CC1, the viability, T/C was 7.28%.

With `Nc1ccn(C2OC(CO)C(O)C2(F)F)c(=O)n1` (centres undefined) + CNC(=O)c1ccc(Nc2nc(OC3CCCC3)c3c(-c4ccc5nc(C)oc5c4)c[nH]c3n2)c(OC)c1, the viability, T/C was 47.3%.

Take `O=C(c1cc(Cc2n[nH]c(=O)c3ccccc23)ccc1F)N1CCN(C(=O)C2CC2)CC1` + CN1CCN(c2cc(C(=O)Nc3cc4cc(-c5cnn(C)c5)ccc4cn3)ccn2)CC1: the viability, T/C was 16.8%.

The test is the same for the next values; noted with them: second compound 0.316 µM; first compound 10 µM; stronger effect = lower value.
With `O=c1[nH]cc(F)c(=O)[nH]1` + CN1CCN(c2cc(C(=O)Nc3cc4cc(-c5cnn(C)c5)ccc4cn3)ccn2)CC1, the viability, T/C is 29.8%.

Consider `Nc1ccccc1NC(=O)c1ccc(CNC(=O)OCc2cccnc2)cc1` + CN1CCN(c2cc(C(=O)Nc3cc4cc(-c5cnn(C)c5)ccc4cn3)ccn2)CC1, for which the viability, T/C was 4.48%.

On to `Nc1ccn(C2OC(CO)C(O)C2(F)F)c(=O)n1` (centres undefined) + CNC(=O)c1ccc(Nc2nc(OC3CCCC3)c3c(-c4ccc5nc(C)oc5c4)c[nH]c3n2)c(OC)c1, for which the viability, T/C was 51.8%.

Turning to `O=C(c1cc(Cc2n[nH]c(=O)c3ccccc23)ccc1F)N1CCN(C(=O)C2CC2)CC1` + CN1CCN(c2cc(C(=O)Nc3cc4cc(-c5cnn(C)c5)ccc4cn3)ccn2)CC1, the viability, T/C was 14.2%.

The same test, now with this note: second compound 1 µM; first compound 0.0316 µM; stronger effect = lower value.
For `O=c1[nH]cc(F)c(=O)[nH]1` + CN1CCN(c2cc(C(=O)Nc3cc4cc(-c5cnn(C)c5)ccc4cn3)ccn2)CC1, the viability, T/C is 12.8%.

On to `Nc1ccccc1NC(=O)c1ccc(CNC(=O)OCc2cccnc2)cc1` + CN1CCN(c2cc(C(=O)Nc3cc4cc(-c5cnn(C)c5)ccc4cn3)ccn2)CC1, for which the viability, T/C is 12.7%.

`Nc1ccn(C2OC(CO)C(O)C2(F)F)c(=O)n1` (centres undefined) + CNC(=O)c1ccc(Nc2nc(OC3CCCC3)c3c(-c4ccc5nc(C)oc5c4)c[nH]c3n2)c(OC)c1: the viability, T/C was 43.2%.

Consider `O=C(c1cc(Cc2n[nH]c(=O)c3ccccc23)ccc1F)N1CCN(C(=O)C2CC2)CC1` + CN1CCN(c2cc(C(=O)Nc3cc4cc(-c5cnn(C)c5)ccc4cn3)ccn2)CC1, for which the viability, T/C was 9.74%.

The test is the same for the next values; noted with them: second compound 1 µM; first compound 0.1 µM; stronger effect = lower value.
In the case of `O=c1[nH]cc(F)c(=O)[nH]1` + CN1CCN(c2cc(C(=O)Nc3cc4cc(-c5cnn(C)c5)ccc4cn3)ccn2)CC1, the viability, T/C was 6.16%.

Consider `Nc1ccccc1NC(=O)c1ccc(CNC(=O)OCc2cccnc2)cc1` + CN1CCN(c2cc(C(=O)Nc3cc4cc(-c5cnn(C)c5)ccc4cn3)ccn2)CC1, for which the viability, T/C was 7.04%.

On to `Nc1ccn(C2OC(CO)C(O)C2(F)F)c(=O)n1` (centres undefined) + CNC(=O)c1ccc(Nc2nc(OC3CCCC3)c3c(-c4ccc5nc(C)oc5c4)c[nH]c3n2)c(OC)c1, for which the viability, T/C is 47%.

As for `O=C(c1cc(Cc2n[nH]c(=O)c3ccccc23)ccc1F)N1CCN(C(=O)C2CC2)CC1` + CN1CCN(c2cc(C(=O)Nc3cc4cc(-c5cnn(C)c5)ccc4cn3)ccn2)CC1, the viability, T/C is 5.97%.

Still in this test, the particulars now being: second compound 1 µM; first compound 0.316 µM; stronger effect = lower value.
Turning to `O=c1[nH]cc(F)c(=O)[nH]1` + CN1CCN(c2cc(C(=O)Nc3cc4cc(-c5cnn(C)c5)ccc4cn3)ccn2)CC1, the viability, T/C is 6.71%.

Turning to `Nc1ccccc1NC(=O)c1ccc(CNC(=O)OCc2cccnc2)cc1` + CN1CCN(c2cc(C(=O)Nc3cc4cc(-c5cnn(C)c5)ccc4cn3)ccn2)CC1, the viability, T/C was 7.87%.

Regarding `Nc1ccn(C2OC(CO)C(O)C2(F)F)c(=O)n1` (centres undefined) + CNC(=O)c1ccc(Nc2nc(OC3CCCC3)c3c(-c4ccc5nc(C)oc5c4)c[nH]c3n2)c(OC)c1, the viability, T/C was 42.1%.

Regarding `O=C(c1cc(Cc2n[nH]c(=O)c3ccccc23)ccc1F)N1CCN(C(=O)C2CC2)CC1` + CN1CCN(c2cc(C(=O)Nc3cc4cc(-c5cnn(C)c5)ccc4cn3)ccn2)CC1, the viability, T/C is 9.24%.

Staying with this test, now noted: second compound 1 µM; first compound 1 µM; stronger effect = lower value.
As to `O=c1[nH]cc(F)c(=O)[nH]1` + CN1CCN(c2cc(C(=O)Nc3cc4cc(-c5cnn(C)c5)ccc4cn3)ccn2)CC1, the viability, T/C is 8.95%.

In the case of `Nc1ccccc1NC(=O)c1ccc(CNC(=O)OCc2cccnc2)cc1` + CN1CCN(c2cc(C(=O)Nc3cc4cc(-c5cnn(C)c5)ccc4cn3)ccn2)CC1, the viability, T/C was 6.5%.

`Nc1ccn(C2OC(CO)C(O)C2(F)F)c(=O)n1` (centres undefined) + CNC(=O)c1ccc(Nc2nc(OC3CCCC3)c3c(-c4ccc5nc(C)oc5c4)c[nH]c3n2)c(OC)c1: the viability, T/C is 35.8%.

In the case of `O=C(c1cc(Cc2n[nH]c(=O)c3ccccc23)ccc1F)N1CCN(C(=O)C2CC2)CC1` + CN1CCN(c2cc(C(=O)Nc3cc4cc(-c5cnn(C)c5)ccc4cn3)ccn2)CC1, the viability, T/C is 5%.

The same test, now with this note: second compound 1 µM; first compound 3.16 µM; stronger effect = lower value.
For the molecule `O=c1[nH]cc(F)c(=O)[nH]1` + CN1CCN(c2cc(C(=O)Nc3cc4cc(-c5cnn(C)c5)ccc4cn3)ccn2)CC1, the viability, T/C was 7.13%.

Turning to `Nc1ccccc1NC(=O)c1ccc(CNC(=O)OCc2cccnc2)cc1` + CN1CCN(c2cc(C(=O)Nc3cc4cc(-c5cnn(C)c5)ccc4cn3)ccn2)CC1, the viability, T/C was 7%.

As to `Nc1ccn(C2OC(CO)C(O)C2(F)F)c(=O)n1` (centres undefined) + CNC(=O)c1ccc(Nc2nc(OC3CCCC3)c3c(-c4ccc5nc(C)oc5c4)c[nH]c3n2)c(OC)c1, the viability, T/C was 32.8%.

For `O=C(c1cc(Cc2n[nH]c(=O)c3ccccc23)ccc1F)N1CCN(C(=O)C2CC2)CC1` + CN1CCN(c2cc(C(=O)Nc3cc4cc(-c5cnn(C)c5)ccc4cn3)ccn2)CC1, the viability, T/C is 8.27%.

Staying with this test, now noted: second compound 1 µM; first compound 10 µM; stronger effect = lower value.
With `O=c1[nH]cc(F)c(=O)[nH]1` + CN1CCN(c2cc(C(=O)Nc3cc4cc(-c5cnn(C)c5)ccc4cn3)ccn2)CC1, the viability, T/C is 5.19%.

Take `Nc1ccccc1NC(=O)c1ccc(CNC(=O)OCc2cccnc2)cc1` + CN1CCN(c2cc(C(=O)Nc3cc4cc(-c5cnn(C)c5)ccc4cn3)ccn2)CC1: the viability, T/C was 7.23%.

Consider `Nc1ccn(C2OC(CO)C(O)C2(F)F)c(=O)n1` (centres undefined) + CNC(=O)c1ccc(Nc2nc(OC3CCCC3)c3c(-c4ccc5nc(C)oc5c4)c[nH]c3n2)c(OC)c1, for which the viability, T/C was 45.6%.

`O=C(c1cc(Cc2n[nH]c(=O)c3ccccc23)ccc1F)N1CCN(C(=O)C2CC2)CC1` + CN1CCN(c2cc(C(=O)Nc3cc4cc(-c5cnn(C)c5)ccc4cn3)ccn2)CC1: the viability, T/C was 8.76%.

The test is the same for the next values; noted with them: second compound 3.16 µM; first compound 0.0316 µM; stronger effect = lower value.
Regarding `O=c1[nH]cc(F)c(=O)[nH]1` + CN1CCN(c2cc(C(=O)Nc3cc4cc(-c5cnn(C)c5)ccc4cn3)ccn2)CC1, the viability, T/C was 9.61%.

As for `Nc1ccccc1NC(=O)c1ccc(CNC(=O)OCc2cccnc2)cc1` + CN1CCN(c2cc(C(=O)Nc3cc4cc(-c5cnn(C)c5)ccc4cn3)ccn2)CC1, the viability, T/C is 7.85%.

With `Nc1ccn(C2OC(CO)C(O)C2(F)F)c(=O)n1` (centres undefined) + CNC(=O)c1ccc(Nc2nc(OC3CCCC3)c3c(-c4ccc5nc(C)oc5c4)c[nH]c3n2)c(OC)c1, the viability, T/C is 45%.

On to `O=C(c1cc(Cc2n[nH]c(=O)c3ccccc23)ccc1F)N1CCN(C(=O)C2CC2)CC1` + CN1CCN(c2cc(C(=O)Nc3cc4cc(-c5cnn(C)c5)ccc4cn3)ccn2)CC1, for which the viability, T/C is 6.83%.
